Laboratory results from patent US20250230147A1, “LACTAMS AS CBL-B INHIBITORS” (Genentech, Inc., priority 2021, published 2025).
pIC50: −log10 of the molar value.

Experiments:
c-Cbl = c-Cbl (Homo sapiens (Human), UniProt P22681); experiment: C-Cbl LCK Ub TR-FRET assay (c-cbl Lck HTRF); type: biochemical; settings: for (fold-selectivity): C-cbl Lck HTRF IC50 relative to Cbl-b Lck HTRF IC50
In short: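 After the ubiquitination reaction, detection mixture was added and plates incubated 20 min at room temperature before reading. IC50 values were calculated with wells lacking LCK as the low control and DMSO as the high control.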

Cbl-b = Cbl-b (Homo sapiens (Human), UniProt Q13191); experiment: Cbl-b LCK Ub TR-FRET assay (Cbl-b Lck HTRF); type: biochemical
In short: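 Biotin-Cbl-b preincubated with compound (10-point 3-fold series) 60 min, then His-LCK with 1 mM ATP (2× mixture) added for 90 min at room temperature. Ubiquitination detected by TR-FRET using HA-ubiquitin/UBE2D2 adduct, anti-HA-D2 and streptavidin-Eu; IC50 normalised to no-LCK and DMSO controls.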

Sequence of Cbl-b (Q13191 40-426): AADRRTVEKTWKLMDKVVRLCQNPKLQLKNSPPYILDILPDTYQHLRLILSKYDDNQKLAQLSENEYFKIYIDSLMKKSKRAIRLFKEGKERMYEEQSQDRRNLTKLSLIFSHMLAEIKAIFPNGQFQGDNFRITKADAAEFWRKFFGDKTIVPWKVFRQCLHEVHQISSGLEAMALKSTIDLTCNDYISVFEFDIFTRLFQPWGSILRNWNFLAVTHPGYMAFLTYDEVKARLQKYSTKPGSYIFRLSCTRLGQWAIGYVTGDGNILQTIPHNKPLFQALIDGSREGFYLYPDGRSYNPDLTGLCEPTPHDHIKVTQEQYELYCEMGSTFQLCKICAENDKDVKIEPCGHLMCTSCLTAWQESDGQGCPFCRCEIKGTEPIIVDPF
Sequence of c-Cbl (P22681 47-435): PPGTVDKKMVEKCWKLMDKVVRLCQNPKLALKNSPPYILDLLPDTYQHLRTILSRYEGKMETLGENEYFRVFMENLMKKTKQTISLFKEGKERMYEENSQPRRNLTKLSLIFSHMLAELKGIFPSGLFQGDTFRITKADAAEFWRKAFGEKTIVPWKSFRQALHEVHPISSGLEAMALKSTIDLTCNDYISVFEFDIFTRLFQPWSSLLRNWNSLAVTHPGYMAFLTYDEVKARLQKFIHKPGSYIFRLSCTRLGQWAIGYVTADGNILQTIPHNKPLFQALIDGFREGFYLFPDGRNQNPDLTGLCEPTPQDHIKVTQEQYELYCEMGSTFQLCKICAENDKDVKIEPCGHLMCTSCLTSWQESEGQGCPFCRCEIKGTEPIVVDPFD

Row | SMILES | pIC50 (c-Cbl) | (fold-selectivity) (c-Cbl) | pIC50 (Cbl-b)
1 | Cn1cnnc1CC1(c2cc(NCCc3ccncc3)nc(N3Cc4c(cc(CNC5(C)CCC5)cc4C(F)(F)F)C3=O)c2)CCC1 [Compound 321, 2-(4-(1-((4-methyl-4H-1,2,4-triazol-3-yl)methyl)cyclobutyl)-6-((2-(pyridin-4-yl)ethyl)amino)pyridin-2-yl)-6-(((1-methylcyclobutyl)amino)methyl)-4-(trifluoromethyl)isoindolin-1-one] | 7.64 | (1.3x) | 7.74
2 | CCCNCc1cc2c(c(C(F)(F)F)c1)CN(c1cccc(C3([C@H](F)c4nncn4C)CC(F)(F)C3)c1)C2=O [Compound 446, (S)-2-(3-(3,3-difluoro-1-(fluoro(4-methyl-4H-1,2,4-triazol-3-yl)methyl)cyclobutyl)phenyl)-6-((propylamino)methyl)-4-(trifluoromethyl)isoindolin-1-one] | 7.54 | (1.3x) | 7.59
3 | Cn1cnnc1[C@@H](F)C1(c2cccc(N3Cc4c(cc(CN5CC(C)(O)C5)cc4C(F)(F)F)C3=O)c2)COC1 [Compound 162, (S)-2-(3-(3-(fluoro(4-methyl-4H-1,2,4-triazol-3-yl)methyl)oxetan-3-yl)phenyl)-6-((3-hydroxy-3-methylazetidin-1-yl)methyl)-4-(trifluoromethyl)isoindolin-1-one] | 6.48 | 1.7x | 6.72
4 | CC(C)[C@H]1CNCCN1Cc1cc2c(c(C(F)(F)F)c1)CN(c1cccc(C3([C@@H](F)c4nncn4C)COC3)c1)C2=O [Compound 96, 2-(3-(3((R)-fluoro(4-methyl-4H-1,2,4-triazol-3-yl)methyl)oxetan-3-yl)phenyl)-6-(((S)-2-isopropylpiperazin-1-yl)methyl)-4-(trifluoromethyl)isoindolin-1-one] | 7.74 | 1.5x | 7.92
5 | C[C@@H](c1cc2c(c(C(F)(F)F)c1)CN(c1cccc(C3([C@H](F)c4nncn4C)COC3)c1)C2=O)N1CC(C)(F)C1 [Compound 110, 2-(3-(3-((S)-fluoro(4-methyl-4H-1,2,4-triazol-3-yl)methyl)oxetan-3-yl)phenyl)-6-((S)-1-(3-fluoro-3-methylazetidin-1-yl)ethyl)-4-(trifluoromethyl)isoindolin-1-one] | 6.19 | 2.0x | 6.49
6 | Cn1cnnc1CC1(c2cccc(N3Cc4c(cc(C5CCCN5)cc4C(F)(F)F)C3=O)c2)COC1.O=CO (racemic) [Compound 11, 2-(3-(3-((4-methyl-4H-1,2,4-triazol-3-yl)methyl)oxetan-3-yl)phenyl)-6-(pyrrolidin-2-yl)-4-(trifluoromethyl)isoindolin-1-one formate] | 6.21 | 1.5x | 6.38
7 | Cn1cnnc1CC1(c2cccc(N3Cc4c(cc(CN)cc4C(F)(F)F)C3=O)c2)CC(F)(F)C1 [Compound 400, 6-(aminomethyl)-2-(3-(3,3-difluoro-1-((4-methyl-4H-1,2,4-triazol-3-yl)methyl)cyclobutyl)phenyl)-4-(trifluoromethyl)isoindolin-1-one] | 7.29 | (1.3x) | 7.41
8 | CC(C)Oc1cccc2c1CN(c1cccc(C3([C@@H](F)c4nncn4C)COC3)c1)C2=O [Compound 207, (R)-2-(3-(3-(fluoro(4-methyl-4H-1,2,4-triazol-3-yl)methyl)oxetan-3-yl)phenyl)-4-isopropoxyisoindolin-1-one] | 4.89 | 2.8x | 5.35
9 | Cn1cnnc1[C@H](F)C1(c2cccc(N3Cc4c(cc(CN5CCC[C@H]5CO)cc4C(F)(F)F)C3=O)c2)COC1 [Compound 149, 2-(3-(3-((R)-fluoro(4-methyl-4H-1,2,4-triazol-3-yl)methyl)oxetan-3-yl)phenyl)-6-(((S)-2-(hydroxymethyl)pyrrolidin-1-yl)methyl)-4-(trifluoromethyl)isoindolin-1-one] | 6.41 | 1.0x | 6.42
10 | Cn1cnnc1CC1(c2cccc(N3Cc4c(cc(CNCC(C)(C)C)cc4C(F)(F)F)C3=O)c2)CC(F)(F)C1 [Compound 363, 2-(3-(3,3-difluoro-1-((4-methyl-4H-1,2,4-triazol-3-yl)methyl)cyclobutyl)phenyl)-6-((neopentylamino)methyl)-4-(trifluoromethyl)isoindolin-1-one] | 8.02 | (0.75x) | 7.89
11 | CC(C)[C@H]1CN(C2CC2)CCN1Cc1cc2c(c(C(F)(F)F)c1)CN(c1cccc(C3([C@@H](F)c4nncn4C)COC3)c1)C2=O [Compound 405, 6-(((S)-4-cyclopropyl-2-isopropylpiperazin-1-yl)methyl)-2-(3-(3-((R)-fluoro(4-methyl-4H-1,2,4-triazol-3-yl)methyl)oxetan-3-yl)phenyl)-4-(trifluoromethyl)isoindolin-1-one] | 7.80 | (0.91x) | 7.74
12 | Cn1cnnc1[C@@H](F)C1(c2cccc(N3Cc4c(cc(CN5CC(S(C)(=O)=O)C5)cc4C(F)(F)F)C3=O)c2)COC1 [Compound 164, (S)-2-(3-(3-(fluoro(4-methyl-4H-1,2,4-triazol-3-yl)methyl)oxetan-3-yl)phenyl)-6-((3-(methylsulfonyl)azetidin-1-yl)methyl)-4-(trifluoromethyl)isoindolin-1-one] | 6.19 | 1.8x | 6.46
13 | CCc1cc(C2(Cc3nncn3C)CCC2)cc(N2Cc3c(cc(CNC4(C)CCC4)cc3C(F)(F)F)C2=O)n1 [Compound 361, 2-(6-ethyl-4-(1-((4-methyl-4H-1,2,4-triazol-3-yl)methyl)cyclobutyl)pyridin-2-yl)-6-(((1-methylcyclobutyl)amino)methyl)-4-(trifluoromethyl)isoindolin-1-one] | 8.02 | (0.76x) | 7.89
14 | Cn1cnnc1CC1(c2ccnc(N3Cc4c(cc(CNC5(C)CCC5)cc4C(F)(F)F)C3=O)c2)CCC1 [Compound 326, 2-(4-(1-((4-methyl-4H-1,2,4-triazol-3-yl)methyl)cyclobutyl)pyridin-2-yl)-6-(((1-methylcyclobutyl)amino)methyl)-4-(trifluoromethyl)isoindolin-1-one] | 7.80 | (1.1x) | 7.82
15 | Cn1cnnc1[C@H](F)C1(c2cccc(N3Cc4c(cc(CNC5(C)CCC5)cc4C(F)(F)F)C3=O)c2)COC1 [Compound 494, (R)-2-(3-(3-(fluoro(4-methyl-4H-1,2,4-triazol-3-yl)methyl)oxetan-3-yl)phenyl)-6-(((1-methylcyclobutyl)amino)methyl)-4-(trifluoromethyl)isoindolin-1-one] | 7.92 | (0.94x) | 7.89
16 | Cn1cnnc1[C@H](F)C1(c2cccc(N3Cc4c(cccc4-c4ccccc4)C3=O)c2)COC1 [Compound 210, (R)-2-(3-(3-(fluoro(4-methyl-4H-1,2,4-triazol-3-yl)methyl)oxetan-3-yl)phenyl)-4-phenylisoindolin-1-one] | < 4.70 | 1.0x | < 4.70
17 | COCC1CCN(Cc2cc3c(c(C(F)(F)F)c2)CN(c2cccc(C4([C@H](F)c5nncn5C)COC4)c2)C3=O)CC1 [Compound 146, (S)-2-(3-(3-(fluoro(4-methyl-4H-1,2,4-triazol-3-yl)methyl)oxetan-3-yl)phenyl)-6-((4-(methoxymethyl)piperidin-1-yl)methyl)-4-(trifluoromethyl)isoindolin-1-one] | 6.32 | 1.1x | 6.37
18 | CC(C)NCc1cc2c(c(C(F)(F)F)c1)CN(c1cccc(C3([C@H](F)c4nncn4C)CC(F)(F)C3)c1)C2=O [Compound 418, (S)-2-(3-(3,3-difluoro-1-(fluoro(4-methyl-4H-1,2,4-triazol-3-yl)methyl)cyclobutyl)phenyl)-6-((isopropylamino)methyl)-4-(trifluoromethyl)isoindolin-1-one] | 7.43 | (1.2x) | 7.49
19 | Cn1cnnc1CC1(c2cc(-c3ccccc3)nc(N3Cc4c(cc(CNC5(C)CCC5)cc4C(F)(F)F)C3=O)c2)CCC1 [Compound 324, 2-(4-(1-((4-methyl-4H-1,2,4-triazol-3-yl)methyl)cyclobutyl)-6-phenylpyridin-2-yl)-6-(((1-methylcyclobutyl)amino)methyl)-4-(trifluoromethyl)isoindolin-1-one] | 8.12 | (0.66x) | 7.92
20 | Cn1cnnc1[C@@H](F)C1(c2cccc(N3Cc4c(cc(CN5CCC5)cc4C(F)(F)F)C3=O)c2)CC(F)(F)C1 [Compound 398, (S)-6-(azetidin-1-ylmethyl)-2-(3-(3,3-difluoro-1-(fluoro(4-methyl-4H-1,2,4-triazol-3-yl)methyl)cyclobutyl)phenyl)-4-(trifluoromethyl)isoindolin-1-one] | 6.74 | (1.3x) | 6.85
21 | C[C@@H](NC1(C)CCC1)c1cc2c(c(C(F)(F)F)c1)CN(c1cccc(C3(Cc4nncn4C)CC(F)(F)C3)c1)C2=O [Compound 245, (R)-2-(3-(3,3-difluoro-1-((4-methyl-4H-1,2,4-triazol-3-yl)-methyl)cyclobutyl)phenyl)-6-(1-((1-methylcyclobutyl)amino)ethyl)-4-(trifluoromethyl)-isoindolin-1-one] | 7.89 | (1.0x) | 7.89
